Patent publication US9913789B2, “Formulations containing sphinganine” (Evonik Degussa GmbH, priority 2013, dated 2018)

Experiments:
[1] = system: human follicular dermal papilla cells (HFDPCs); assay: MTT assay, stimulation of proliferation of human follicular dermal papilla cells; format: cell-based; conditions: sphinganine 0.3 μg/ml; creatine 10 μg/ml; caffeine 10 μg/ml; 0.1% (v/v) ethanol; incubation 24 hours
Method: The cells were sown in a cell density of about 6300 cells/cm^2 in a T75 bottle with follicle dermal papilla cell growth medium (for short: growth medium) and then incubated at 37° C., 5% CO2. After 1 day, media exchange was carried out. After a further 3 days, the medium was removed, the cells were washed with PBS (phosphate buffered saline) (without Mg^2+ and Ca^2+), detached by accutase treatment; the cell count is determined and then the cells are sown in a concentration of about 5500 cells/cm^2 in new T75 bottles in growth medium and further cultivated under identical conditions as described above. After 1 and 3 days, media exchange was carried out. After 1 further day, the medium was removed, the cells were washed in PBS (without Mg^2+ and Ca^2+), detached by accutase treatment and then sown in a concentration of about 10 000 cells/cm^2 into the cavities of 6-well cell culture plates with 2.5 ml of growth medium in each case. After 1 day, media exchange was carried out, and the test substances—diluted in fresh medium—were applied. […] All cultivations were carried out in the presence of 0.1% (v/v) ethanol and a corresponding vehicle control was performed at the same time. After incubation for 24 hours, an MTT assay was carried out. The activity in the MTT test indicates the activity of the mitochondrial dehydrogenase and is a marker for the cell vitality and the proliferation capacity. Firstly, a 10 mg/ml stock solution of the MTT reagent (Thiazolyl Blue Tetrazolium Bromide, Sigma Aldrich M5655) in PBS was prepared. The stock solution was then diluted with growth medium to an end concentration of 1 mg/ml MTT reagent. The cells were washed with PBS (without Mg^2+ and Ca^2+) and incubated with 1 ml of growth medium with MTT reagent for 3 h at 37° C. […] The absorption of the extracts was determined by spectrophotometry at a wavelength of 550 nm. The optical density of the extracts from the cells treated only with the vehicle is regarded as the reference (100%), all of the other measured values are quantified relative to the reference sample.

[2] = system: ex vivo hair follicles; conditions: ex vivo hair follicles kept in culture; EP0790053; cited from earlier work
[3] = system: in vitro cultivated keratinocytes; conditions: EP0790053; cited from earlier work

Structure (SMILES) | cell proliferation (MTT, optical density at 550 nm relative to vehicle control = 100%) [1] [%] | lifespan of the hair follicles [2] | effect on growth of keratinocytes [3]
Cn1c(=O)c2c(ncn2C)n(C)c1=O [caffeine] | 102.5 | – | –
CN(CC(=O)O)C(=N)N [creatine] | 104.0 | – | –
CCCCCCCCCCCCCCC[C@@H](O)[C@@H](N)CO [sphinganine] | 103.9 | increases the lifespan of the hair follicles | growth-promoting effect
